Drawing on patent US20180214428A1, “3-(1H-INDOL-2-YL)-1H-PYRAZOLO[3,4-B]PYRIDINES AND THERAPEUTIC USES THEREOF” (Samumed, LLC, priority 2015, published 2018), this text covers EC50 for nine compounds.

One test deals with IL-6. Kind of test: IL-6 inhibition in LPS-stimulated THP-1 monocytes (HTRF). Type of test: cell-based, human. Particulars: Homo sapiens; THP-1 cells, 500 ng/mL LPS, 22 h, HTRF IL-6 readout; 10-point dose-response from 10 μM. The procedure:
Human monocyte cell line (THP-1 cells; Catalog # TIB-202, ATCC, Manassas, Va.) were cultured in Roswell Park Memorial Institute (RPMI) 1640 Medium (Catalog #21870-100, Buffalo, N.Y.) with 1% L-glutamine, 1% HEPES, 1% Sodium Pyruvate, 2% Sodium Bicarbonate supplemented with 100 units/mL penicillin, 50 μg/mL streptomycin, 2-mercaptoethanol (0.05 mM) [basal medium] and 10% fetal bovine serum (Catalog #16140089, Life Technologies, Carlsbad, Calif.) at 37° C. and 5% CO2.
THP-1 cells were cultured in basal media with 1% FBS for 24 hours before the start of the assay. Each compound was dissolved in DMSO as a 10 mM stock and used to prepare compound source plates. Serial dilution (1:3, 10-point dose-response curves starting from 10 μM) and compound transfer was performed using the ECHO 550 (Labcyte, Sunnyvale, Calif.) into 384-well white low volume assay plates (Greiner Bio-One) with appropriate DMSO backfill for a final DMSO concentration of 0.1%. THP-1 cells were plated at 5000 cells/well in the 384-well plates and incubated at 37° C. for 2 h. 500 ng/mL of LPS was added after 2 hours and cells were incubated for another 22 hours at 37° C. Plates were spun in a centrifuge for 1 minute at […] and a mixture of anti-IL6 XL665, and anti-IL6 Cryptate diluted in reconstitution buffer (Cisbio Inc.) was added to each well. Following incubation for 3 hrs at room temperature, Homogeneous Time-Resolved Fluorescence (HTRF) was measured using the Envision (Perkin Elmer) at 665 nm and […]. The ratio of fluorescence at 665 nm to 620 nm was used as a readout for IL6 quantification. All samples were processed in duplicate. Readings were normalized to DMSO treated cells and normalized activities were utilized for EC50 calculations using the dose-response log (inhibitor) vs. response variable slope (four parameters) nonlinear regression feature available in GraphPad Prism 5.0 (or Dotmatics). For EC50 of >10 μM, the percent inhibition at 10 μM is provided.

Test [1] deals with primary human fibroblasts derived from IPF patients (LL29 cells). Kind of test: Inhibition of the fibrotic process: αSMA staining in TGF-β1 treated LL29 fibroblasts. The format is cell-based. Particulars: Homo sapiens, Fibroblast, 96 h, TGF-β1 20 ng/mL, 4 days, % αSMA positive cells. From the text: Representative compounds were screened using primary human fibroblasts (derived from IPF patients) treated with TGF-β1 to determine their ability to inhibit the fibrotic process.
Primary human fibroblasts derived from IPF patients (LL29 cells) [^1Xiaoqiu Liu, et. al., “Fibrotic Lung Fibroblasts Show Blunted Inhibition by cAMP Due to Deficient cAMP Response Element-Binding Protein Phosphorylation”, Journal of Pharmacology and Experimental Therapeutics (2005), 315(2), 678-687; ^2Watts, K. L., et. al., “RhoA signaling modulates cyclin D1 expression in human lung fibroblasts; implications for idiopathic pulmonary fibrosis”, Respiratory Research (2006), 7(1), 88] were obtained from American Type Culture Collection (ATCC) and expanded in F12 medium supplemented with 15% Fetal Bovine Serum and Penicillin/Streptomycin.
Each compound was dissolved in DMSO as a 10 mM stock and used to prepare compound source plates. Serial dilution (1:2, 11-point dose-response curves from 10 μM to […]) and compound transfer was performed using the ECHO 550 (Labcyte, Sunnyvale, Calif.) into 384-well clear bottom assay plates (Greiner Bio-One) with appropriate DMSO backfill for a final DMSO concentration of 0.1%. LL29 cells are plated at 1,500 cells/well in 80 μL/well F12 medium supplemented with 1% Fetal Bovine Serum. One hour after addition of the cells, TGF-01 (Peprotech; 20 ng/mL) was added to the plates to induce fibrosis (ref. 1 and 2 above). Wells treated with TGF-β1 and containing DMSO were used as controls. Cells were incubated at 37° C. and 5% CO2 for 4 days. Following incubation for 4 days, SYTOX green nucleic acid stain (Life Technologies [Thermo Fisher Scientific]) was added to the wells at a final concentration of 1 μM and incubated at room temperature for 30 min. Cells were then fixed using 4% formaldehyde (Electron Microscopy Sciences), washed 3 times with PBS followed by blocking and permeabilization using 3% Bovine Serum Albumin (BSA; Sigma) and 0.3% Triton X-100 (Sigma) in PBS. Cells were then stained with antibody specific to α-smooth muscle actin (aSMA; Abcam) (ref. 1 and 2 above) in 3% Bovine Serum Albumin (BSA; Sigma) and 0.3% Triton X-100 (Sigma) in PBS, and incubated overnight at 4° C. Cells were then washed 3 times with PBS, followed by incubation with Alexa Flor-647 conjugated secondary antibody (Life Technologies [Thermo Fisher Scientific]) and DAPI at room temperature for 1 hour. Cells were then washed 3 times with PBS and plates were sealed for imaging. αSMA staining was imaged by excitation at 630 nm and emission at 665 nm and quantified using the Compartmental Analysis program on the CellInsight CX5 (Thermo Scientific). Dead or apoptotic cells were excluded from analysis based on positive SYTOX green staining. % of total cells positive for aSMA were counted in each well and normalized to the average of 11 wells treated with TGF-01 on the same plate using Dotmatics' Studies Software. The normalized averages (fold change over untreated) of 3 replicate wells for each compound concentration were used to create dose-responses curves and EC50 values were calculated using non-linear regression curve fit in the Dotmatics' Studies Software. For EC50 of >10 μM, the percent inhibition at 10 μM is provided.

The test system of test [2] is Wnt activity (Sp5-Luc reporter gene, SW480 colon carcinoma cells). Kind of test: Screening assay for Wnt activity: Sp5-Luc reporter gene assay in SW480 cells. The format is cell-based, human. Particulars: Homo sapiens, overnight incubation. From the text:
The screening assay for Wnt activity is described as follows. Reporter cell lines can be generated by stably transducing cancer cell lines (e.g., colon cancer) or primary cells (e.g., IEC-6 intestinal cells) with a lentiviral construct that includes a Wnt-responsive promoter driving expression of the firefly luciferase gene.
SW480 colon carcinoma cells were transduced with a lentiviral vector expressing luciferase with a human Sp5 promoter consisting of a sequence of eight TCF/LEF binding sites. SW480 cells stably expressing the Sp5-Luc reporter gene and a hygromycin resistance gene were selected by treatment with 150 μg/mL of hygromycin for 7 days. These stably transduced SW480 cells were expanded in cell culture and used for all further screening activities. Each compound was dissolved in DMSO as a 10 mM stock and used to prepare compound source plates. Serial dilution (1:3, 10-point dose-response curves starting from 10 μM) and compound transfer was performed using the ECHO 550 (Labcyte, Sunnyvale, Calif.) into 384-well white solid bottom assay plates (Greiner Bio-One) with appropriate DMSO backfill for a final DMSO concentration of 0.1%. For Sp5-Luc reporter gene assays, the cells were plated at 4,000 cells/well in 384-well plates with medium containing 1% fetal bovine serum and incubated overnight at 37° C. and 5% CO2. Following incubation, 20 μl of BrightGlo luminescence reagent (Promega) was added to each well of the 384-well assay plates. The plates were placed on an orbital shaker for 2 min and then luminescence was quantified using the Envision (Perkin Elmer) plate reader. Readings were normalized to DMSO only treated cells, and normalized activities were utilized for EC50 calculations using the dose-response log (inhibitor) vs. response variable slope (four parameters) nonlinear regression feature available in GraphPad Prism 5.0 (or Dotmatics). For EC50 of >10 μM, the percent inhibition at 10 μM is provided.
On the technique in general: A reporter such as luciferase makes a cellular process visible.

The test system of the next test is SW480 colon cancer cells. Kind of test: Cell viability assay (CellTiter-Blue) in SW480 colon cancer cells. Type of test: cell-based, human. Conditions: Homo sapiens, 96 h, four days, CellTiter-Blue. The procedure: Representative compounds were screened using the following assay procedure to assess the effect on cell viability as described below.
Each compound was dissolved in DMSO as a 10 mM stock and used to prepare compound source plates. Serial dilution (1:3, 8-point dose-response curves from 10 μM to 0.0045 μM) and compound transfer was performed using the ECHO 550 (Labcyte, Sunnyvale, Calif.) into 96-well clear bottom, black-walled plates (Corning-Costar).
Approximately 2×10^3 SW480 colon cancer cells were seeded into each well and allowed to incubate in the presence or absence of compound for four days at 37° C./5% CO2. Eight replicates of DMSO-treated cells served as controls and cells treated with compound were performed in duplicate.
After incubation, 20 μL of CellTiter-Blue (Promega) was added to each well allowed to incubate for approximately 3 hours. This reagent was a buffered solution which contains resazurin, metabolically active cells were able to reduce rezarurin (blue) into resorufin (pink) which was highly fluorescent. This measured fluorescence was used as a readout for cell viability.
After incubation, the plates were read at Ex 560 nm Em 590 nm (Cytation 3, BioTek). Dose-response curves were generated and EC50 concentration values were calculated using non-linear regression curve fit in the GraphPad Prism (San Diego, Calif.) or Dotmatics' Studies Software (Bishops Stortford, UK). For EC50 of >10 μM, the percent inhibition at 10 μM is provided.
For orientation: Resazurin is reduced to fluorescent resorufin, in cell work by metabolically active cells.

As for `CCCCC(=O)Nc1cncc(-c2cnc3[nH]nc(-c4cc5c(-c6ccccc6F)cccc5[nH]4)c3c2)c1` [Compound 64, N-(5-(3-(4-(2-Fluorophenyl)-1H-indol-2-yl)-1H-pyrazolo[3,4-b]pyridin-5-yl)pyridin-3-yl)pentanamide], the EC50 (commonly the concentration giving half of the maximal effect) with IL-6 was 3280 nM; in test [1], 1770 nM; in test [2], 796 nM; in the test on SW480 colon cancer cells, 3880 nM.
The like results for `CN(C)Cc1cncc(-c2cnc3[nH]nc(-c4cc5c(-c6cccc(F)c6)cccc5[nH]4)c3c2)c1` [Compound 10, 1-(5-(3-(4-(3-Fluorophenyl)-1H-indol-2-yl)-1H-pyrazolo[3,4-b]pyridin-5-yl)pyridin-3-yl)-N,N-dimethylmethanamine] were, in that order, 1560 nM, 4390 nM, 1060 nM and 3440 nM.
In the same order, the values of `Nc1cncc(-c2cnc3[nH]nc(-c4cc5c(N6CCCCC6)cccc5[nH]4)c3c2)c1` [Compound 147, 5-(3-(4-(Piperidin-1-yl)-1H-indol-2-yl)-1H-pyrazolo[3,4-b]pyridin-5-yl) pyridin-3-amine] are 213 nM, 620 nM, 154 nM and 1050 nM.
As for `CS(=O)(=O)NCc1cc(F)cc(-c2cccc3[nH]c(-c4n[nH]c5ncc(-c6cncc(NC(=O)c7ccccc7)c6)cc45)cc23)c1` [Compound 461, N-(5-(3-(4-(3-Fluoro-5-(methylsulfonamidomethyl)phenyl)-1H-indol-2-yl)-1H-pyrazolo[3,4-b]pyridin-5-yl)pyridin-3-yl)benzamide], the EC50 in the test with IL-6 worked out at 547 nM; in test [1], 1340 nM; in test [2] it was 210 nM; in the test on SW480 colon cancer cells, 1690 nM.
In the same order, the values of `CCCC(=O)Nc1cncc(-c2cnc3[nH]nc(-c4cc5c(-c6ccncc6)cccc5[nH]4)c3c2)c1` [Compound 110, N-(5-(3-(4-(Pyridin-4-yl)-1H-indol-2-yl)-1H-pyrazolo[3,4-b]pyridin-5-yl)pyridin-3-yl)butyramide] are 45 nM, 2070 nM, 365 nM and 2260 nM.
The like results for `CCC(=O)Nc1cncc(-c2cnc3[nH]nc(-c4cc5c(N6CCCCC6)cccc5[nH]4)c3c2)c1` [Compound 145, N-(5-(3-(4-(Piperidin-1-yl)-1H-indol-2-yl)-1H-pyrazolo[3,4-b]pyridin-5-yl)pyridin-3-yl)propionamide] were, in that order, 2640 nM, 1410 nM, 290 nM and 3670 nM.
The like results for `CC(C)(C)C(=O)Nc1cncc(-c2cnc3[nH]nc(-c4cc5c(-c6cc(F)cc(CNS(C)(=O)=O)c6)cccc5[nH]4)c3c2)c1` [Compound 458, N-(5-(3-(4-(3-Fluoro-5-(methylsulfonamidomethyl)phenyl)-1H-indol-2-yl)-1H-pyrazolo[3,4-b]pyridin-5-yl)pyridin-3-yl)pivalamide] were, in that order, 146 nM, 1200 nM, 485 nM and 1060 nM.
With `CC(C)Nc1cncc(-c2cnc3[nH]nc(-c4cc5c(N6CCN(C)CC6)cccc5[nH]4)c3c2)c1` [Compound 212, N-Isopropyl-5-(3-(4-(4-methylpiperazin-1-yl)-1H-indol-2-yl)-1H-pyrazolo[3,4-b]pyridin-5-yl)pyridin-3-amine], the EC50 came out at 173 nM in the test with IL-6, 1480 nM in test [1], 1300 nM in test [2] and 1940 nM with SW480 colon cancer cells.
The like results for `CN(C)c1cncc(-c2cnc3[nH]nc(-c4cc5c(-c6cc(F)cc(CNS(C)(=O)=O)c6)cccc5[nH]4)c3c2)c1` [Compound 457, N-(3-(2-(5-(5-(Dimethylamino)pyridin-3-yl)-1H-pyrazolo[3,4-b]pyridin-3-yl)-1H-indol-4-yl)-5-fluorobenzyl)methanesulfonamide] were, in that order, 1440 nM, 1720 nM, 283 nM and 1120 nM.
